Test results from PMC7429991 (Journal of medicinal chemistry, 2020).
Where a name gives a salt, the structure may show the parent alone. One block for each compound: values may come before it.

Legend:
[1] = from PAMPA-BBB Pe
rat nNOS (rnNOS) = rat nNOS (rnNOS) (Rattus norvegicus, UniProt P29476)
M336V/D597N rnNOS = M336V/D597N rnNOS (Rattus norvegicus, UniProt P29476, D597N/M336V); conditions: M336V/D597N vs D597N rnNOS
[2] = test system: panel of 45 pharmacologically relevant CNS targets and receptors; assay: PDSP off-target radioligand displacement screen; type: binding; conditions: for fraction of concerning or moderate hits: PDSP panel; for PDSP targets classified moderate / PDSP targets classified insignificant / PDSP targets classified weak / PDSP targets classified Concerning: number of 45 targets; for PDSP targets classified moderate: 100–300 nM; for PDSP targets classified insignificant: <50% bound at 10 μM; for PDSP targets classified weak: >300 nM
human eNOS (heNOS) = human eNOS (heNOS) (Homo sapiens, UniProt P29474)
H3 receptor = H3 receptor (Homo sapiens, UniProt Q9Y5N1); assay: PDSP off-target binding, H3 receptor
H3 receptor, sequence (Q9Y5N1 whole entry): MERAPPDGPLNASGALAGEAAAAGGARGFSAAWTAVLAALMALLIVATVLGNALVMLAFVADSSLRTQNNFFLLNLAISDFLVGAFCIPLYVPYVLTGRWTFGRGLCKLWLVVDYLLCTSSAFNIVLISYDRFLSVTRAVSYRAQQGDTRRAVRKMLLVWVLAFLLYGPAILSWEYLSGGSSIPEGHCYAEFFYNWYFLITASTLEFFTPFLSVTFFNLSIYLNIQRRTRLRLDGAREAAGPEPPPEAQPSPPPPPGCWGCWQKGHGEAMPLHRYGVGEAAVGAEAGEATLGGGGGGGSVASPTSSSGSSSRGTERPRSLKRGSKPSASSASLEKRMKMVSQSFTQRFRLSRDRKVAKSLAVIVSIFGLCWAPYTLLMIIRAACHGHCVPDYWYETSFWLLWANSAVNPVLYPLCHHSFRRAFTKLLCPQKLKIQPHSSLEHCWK

D597N rnNOS = D597N rnNOS (Rattus norvegicus, UniProt P29476, D597N)
human iNOS (hiNOS) = human iNOS (hiNOS) (Homo sapiens, UniProt P35228); conditions: read-out: Ki hiNOS; purified human iNOS; Ki from IC50 (Cheng-Prusoff)
H2 receptor = H2 receptor (Homo sapiens, UniProt P25021); assay: PDSP off-target binding, H2 receptor
H2 receptor, sequence (P25021 whole entry): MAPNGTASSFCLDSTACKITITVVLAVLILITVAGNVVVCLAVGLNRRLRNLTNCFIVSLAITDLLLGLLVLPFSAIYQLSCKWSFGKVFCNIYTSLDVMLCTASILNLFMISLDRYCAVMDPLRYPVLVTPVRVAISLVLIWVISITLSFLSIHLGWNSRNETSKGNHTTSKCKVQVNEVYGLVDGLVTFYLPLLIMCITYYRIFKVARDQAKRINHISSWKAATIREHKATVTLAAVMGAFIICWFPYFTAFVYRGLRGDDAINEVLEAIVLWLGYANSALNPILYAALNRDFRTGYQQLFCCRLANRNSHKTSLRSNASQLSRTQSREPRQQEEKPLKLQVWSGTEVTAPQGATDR

M336V/D597N rnNOS, sequence (P29476 whole entry M336V/D597N): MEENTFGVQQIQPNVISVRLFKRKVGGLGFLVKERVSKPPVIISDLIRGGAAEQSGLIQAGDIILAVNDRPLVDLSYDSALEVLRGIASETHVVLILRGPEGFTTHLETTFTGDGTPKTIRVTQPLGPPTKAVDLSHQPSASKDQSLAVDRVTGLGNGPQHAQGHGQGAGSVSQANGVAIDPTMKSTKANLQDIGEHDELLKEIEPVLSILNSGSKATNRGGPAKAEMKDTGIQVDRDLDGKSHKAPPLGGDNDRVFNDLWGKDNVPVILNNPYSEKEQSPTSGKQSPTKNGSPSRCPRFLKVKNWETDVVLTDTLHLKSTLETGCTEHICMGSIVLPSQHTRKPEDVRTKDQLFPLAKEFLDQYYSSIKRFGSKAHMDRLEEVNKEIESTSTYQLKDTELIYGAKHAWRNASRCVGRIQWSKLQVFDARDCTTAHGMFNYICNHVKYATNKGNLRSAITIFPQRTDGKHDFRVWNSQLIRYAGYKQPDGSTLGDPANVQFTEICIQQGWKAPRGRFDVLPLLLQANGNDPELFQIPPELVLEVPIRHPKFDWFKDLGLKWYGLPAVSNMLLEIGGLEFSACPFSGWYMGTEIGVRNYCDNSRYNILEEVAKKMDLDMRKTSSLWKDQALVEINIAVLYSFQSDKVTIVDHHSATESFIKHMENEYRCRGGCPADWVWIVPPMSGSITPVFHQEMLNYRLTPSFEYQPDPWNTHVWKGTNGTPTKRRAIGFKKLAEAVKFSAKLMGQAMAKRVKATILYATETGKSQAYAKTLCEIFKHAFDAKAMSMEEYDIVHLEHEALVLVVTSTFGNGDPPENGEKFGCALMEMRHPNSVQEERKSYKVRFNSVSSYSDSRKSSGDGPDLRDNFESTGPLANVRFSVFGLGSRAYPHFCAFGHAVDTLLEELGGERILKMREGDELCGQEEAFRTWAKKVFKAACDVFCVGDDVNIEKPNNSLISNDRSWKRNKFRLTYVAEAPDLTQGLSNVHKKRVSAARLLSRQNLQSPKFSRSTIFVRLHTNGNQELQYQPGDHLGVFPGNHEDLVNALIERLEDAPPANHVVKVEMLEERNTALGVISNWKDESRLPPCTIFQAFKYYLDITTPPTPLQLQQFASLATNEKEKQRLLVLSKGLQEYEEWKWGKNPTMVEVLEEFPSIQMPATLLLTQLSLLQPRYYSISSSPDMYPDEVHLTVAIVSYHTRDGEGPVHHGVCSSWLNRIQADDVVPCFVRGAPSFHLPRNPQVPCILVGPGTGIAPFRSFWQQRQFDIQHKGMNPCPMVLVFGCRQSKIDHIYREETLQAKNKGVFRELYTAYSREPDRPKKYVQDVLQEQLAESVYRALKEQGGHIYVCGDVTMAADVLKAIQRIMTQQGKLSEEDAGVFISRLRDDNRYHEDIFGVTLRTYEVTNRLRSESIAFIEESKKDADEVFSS

prediction (CNS) [1]: CNS (−)
Compound: NCCc1ccc(O)c(O)c1 [dopamine, reference compound]

loss in rnNOS activity (rat nNOS (rnNOS); relative to 5): > 2 fold
Compound: CNCCc1ccc(-c2ccc3c(C)cc(N)nc3c2)cc1.Cl.Cl [compound 6, 4-Methyl-7-(4-(2-(methylamino)ethyl)phenyl)quinolin-2-amine Dihydrochloride]

Compound: Cc1cc(N)nc2cc(-c3ccc(CN)cc3)ccc12.Cl.Cl [compound 7, 7-(4-(Aminomethyl)phenyl)-4-methylquinolin-2-amine Dihydrochloride]
increase in rnNOS activity (rat nNOS (rnNOS); relative to 5): 2.3 fold
prediction (CNS) [1]: CNS (+) (classified as a “CNS (+)” molecule if its effective permeability (Pe) in this assay is larger than 4.0 × 10^–6 cm s^–1)

Compound: Cc1cc(N)nc2cc(-c3ccc(OCc4cocn4)c(CN)c3)ccc12 [compound 36, 7-(3-(Aminomethyl)-4-(oxazol-4-ylmethoxy)phenyl)-4-methylquinolin-2-amine Trihydrochloride]
increased potency against the double mutant (versus the single mutant) (M336V/D597N rnNOS): 5 fold

Compound: Cc1cc(N)nc2cc(-c3ccc(OCc4cccnc4)c(CN)c3)ccc12 [compound 33, 7-(3-(Aminomethyl)-4-(pyridin-3-ylmethoxy)phenyl)-4-methylquinolin-2-amine Trihydrochloride]
fraction of concerning or moderate hits [2]: 8 /45
PDSP targets classified moderate [2]: 5
PDSP targets classified insignificant [2]: 20
PDSP targets classified weak [2]: 17
PDSP targets classified Concerning ([2]; […]): 3
prediction (CNS) [1]: CNS (+) (classified as a “CNS (+)” molecule if its effective permeability (Pe) in this assay is larger than 4.0 × 10^–6 cm s^–1)
improvement in binding affinity toward heNOS (human eNOS (heNOS); 33 versus 32): 3 fold

Compound: Cc1cc(N)nc2cc(-c3ccc(OCC4CC4)c(CN)c3)ccc12 [compound 29, 7-(3-(Aminomethyl)-4-(cyclopropylmethoxy)phenyl)-4-methylquinolin-2-amine Dihydrochloride]
PDSP targets classified moderate [2]: 4
PDSP targets classified insignificant [2]: 13
PDSP targets classified weak [2]: 27
PDSP targets classified Concerning ([2]; Ki < 100 nM): 1
prediction (CNS) [1]: CNS (+) (classified as a “CNS (+)” molecule if its effective permeability (Pe) in this assay is larger than 4.0 × 10^–6 cm s^–1)
off-target binding class, H3 receptor (H3 receptor): concerning (concerning (Ki < 100 nM, or <~2 × nNOS Ki value))

Compound: Cc1cc(N)nc2cc(-c3ccc(OCc4cncs4)c(CN)c3)ccc12 [compound 37, 7-(3-(Aminomethyl)-4-(thiazol-5-ylmethoxy)phenyl)-4-methylquinolin-2-amine Trihydrochloride]
prediction (CNS) [1]: CNS (+) (classified as a “CNS (+)” molecule if its effective permeability (Pe) in this assay is larger than 4.0 × 10^–6 cm s^–1)

less potent than 12 in rnNOS (rat nNOS (rnNOS); relative to 12): approximately 5 fold
Compound: Cc1cc(N)nc2cc(-c3cncc(CN)c3)ccc12.Cl.Cl.Cl [compound 15, 7-(5-(Aminomethyl)pyridin-3-yl)-4-methylquinolin-2-amine Trihydrochloride]

Compound: Cc1cc(N)nc2cc(-c3ccc(OCc4ccccn4)c(CN)c3)ccc12 [compound 32, 7-(3-(Aminomethyl)-4-(pyridin-2-ylmethoxy)phenyl)-4-methylquinolin-2-amine Trihydrochloride]
fraction of concerning or moderate hits [2]: 11 /45
PDSP targets classified insignificant [2]: 12
PDSP targets classified weak [2]: 22
PDSP targets classified Concerning ([2]; […]): 4

Compound: 7-(3-(2-Aminoethyl)phenyl)-4-methylquinolin-2-amine Dihydrochloride [compound 12]
Ki (D597N rnNOS; read-out: Ki D597N rnNOS, single mutant (SM) of rat nNOS): 0.416 µM
decrease in potency, D597N mutant (D597N rnNOS; versus wild type): 8 fold
% remaining at 60 min (- NADPH) (HLM without NADPH, pH 7.4): 87%
% remaining at 60 min (Buffer) (buffer control): 67%
CLint (in vitro intrinsic clearance, HLM): 8 mL/min/kg
Ki (human iNOS (hiNOS)): 29.9 µM
prediction (CNS) [1]: CNS (+) (classified as a “CNS (+)” molecule if its effective permeability (Pe) in this assay is larger than 4.0 × 10^–6 cm s^–1)
off-target binding class, H2 receptor (H2 receptor): concerning (concerning (Ki < 100 nM, or <~2 × nNOS Ki value))
Ki (human eNOS (heNOS); read-out: Ki heNOS, purified human eNOS, Ki calculated from IC50): 52.6 µM
